This data set in a line: Agilent ZORBAX 300 SB-C18, 150 × 1 mm, 3.5 µm; A: water + 0.01% heptafluorobutyric acid; B: acetonitrile + 0.01% heptafluorobutyric acid; gradient (min/%B) 0/0 100/90. Particulars: stereoisomer not certain.
As to `O=C(O)c1c2c(nc3ccccc13)CCCC2`, the LC retention time came to 5.96 min. To `O=C(N=CNC(=O)c1cccnc1)c1cccnc1` belongs 7.45 min; to `Cc1ccccc1-n1nnnc1-c1ccc(-c2nnnn2-c2ccccc2C)cc1`, 15.3 min; to `O=S(=O)(O)CCN1CCN(CCO)CC1`, 1.95 min. With `Cc1ccc(C=NNC(=O)c2ccc(N)cc2)cc1`, the LC retention time turned out to be 10.3 min. As for `O=C(O)CC(NC(=O)OCc1ccccc1)C(=O)O` (centres undefined), the LC retention time was 9.01 min. On to `CCC(C)N1CNc2c(c(=O)[nH]c(=O)n2Cc2ccccc2)C1` (centres undefined), for which the LC retention time was determined as 8.19 min.

`O=C1NC(=O)C(c2ccccc2)(c2ccccc2)N1`: the LC retention time worked out at 11 min.

For the molecule `Cc1ccc(C=C2CN(C)CC(=Cc3ccc(C)cc3)C2=O)cc1`, the LC retention time came out at 12.3 min. Consider `CC(=O)Nc1cc(NC(C)=O)nc(NC(C)=O)n1`, for which the LC retention time was 7.21 min. In the case of `O=C1NCCCC1C(=O)N1CCN(C(=O)c2ccco2)CC1` (centres undefined) it was 7.34 min; in that of `CC(=O)c1cccc(NC(=O)Nc2ccc(C)cc2)c1`, 12.9 min.

Consider `O=C1c2ccccc2C(=O)N1CCN1CCNCC1`, for which the LC retention time stood at 8.07 min. On to `c1ccc(Cn2ccc3ccccc32)cc1`, for which the LC retention time worked out at 16.8 min.

On to `CCCCC1CCC(C(=O)NCC2(N(C)C)CCCCC2)CC1` (centres undefined), for which the LC retention time is 12.4 min. For `CC(C)c1ccc(C=NNC(=O)C[n+]2ccccc2)cc1`, the LC retention time was 10.4 min. For `O=C1NCCN1C(=O)c1ccco1`, the LC retention time is 6.67 min.

In the case of `c1ccc(-n2nnnc2-n2ccnc2)cc1`, the LC retention time stood at 9.59 min. Take `N=C(N=C(N)N)N1CCSCC1`: the LC retention time was 7.17 min.

As for `CCOC(=O)c1ccc(N(CC)CC)cc1`, the LC retention time was found to be 12.5 min.

As for `Cc1nc2ccccc2[nH]1`, the LC retention time amounted to 7.36 min. In the case of `CC(=O)Nc1cc(NC(C)=O)c(C)c(C(=O)O)c1` it was 6.32 min; in that of `O=C(O)c1c[nH]c(=O)[nH]1`, 1.64 min.

As to `O=C1CC2(CCCC2)CC(=O)N1CCCCN1CCN(c2ncccn2)CC1`, the LC retention time turned out to be 10.2 min.

Regarding `C=CCC1(C(C)CCC)C(=O)NC(=O)NC1=O` (centres undefined), the LC retention time was 11.4 min.

Take `Cc1cccc(Nc2cc(=O)[nH]c(=O)[nH]2)c1C`: the LC retention time was 8.71 min. With `COCCNC(=O)Cn1c(=O)n(C)c2ccccc21`, the LC retention time was 8.47 min.

In the case of `CCCNC(=O)Nc1ccc2c(c1)oc1ccccc12`, the LC retention time amounted to 14 min. As for `CCCCCCCCCCOc1ccc(C(=O)NCCN2Cc3ccccc3C2=O)cc1`, the LC retention time was 20.2 min. On to `NCCOc1ccc2ccccc2c1`, for which the LC retention time was determined as 9.22 min. In the case of `c1coc(CN2CCNCC2)c1`, the LC retention time is 7.3 min. Regarding `CC(=O)c1c[nH]cc1C`, the LC retention time amounted to 7.66 min. In the case of `CC1=NC(=O)NC(c2ccccc2)C1C(=O)OCc1ccccc1` (centres undefined) it was 12.6 min; in that of `NCC1CCCCC1`, 8.08 min; in that of `CC(C)NCCNC(C)C`, 7.16 min. In the case of `CNC(=S)C(=S)NC` it was 7.06 min. For the molecule `C[N+](C)(N)Cc1ccccc1`, the LC retention time was found to be 7.54 min. Regarding `CC1(C)SC2C(NC(=O)C(N)c3ccc(O)cc3)C(=O)N2C1C(=O)O` (centres undefined), the LC retention time was 7.52 min. On to `CC(=O)N1c2ccc(N)cc2CC1C` (centres undefined), for which the LC retention time worked out at 7.53 min. On to `CCOC1CCC2CC3C4CCC(O)C5OC1C2C45CCN3C` (centres undefined), for which the LC retention time came out at 8.78 min. On to `CCCC[N+](CCCC)(CCCC)CCCC`, for which the LC retention time was found to be 13.2 min.

For the molecule `CC(C)c1ccc(-c2cc(-c3ccccc3)c3c(ccc4ncccc43)n2)cc1`, the LC retention time amounted to 20.4 min.

For the molecule `CN(C)Cc1ccccc1`, the LC retention time was 7.53 min. As for `CCOc1ccc(C=CC(=O)c2ccc(C)cc2)cc1`, the LC retention time turned out to be 17.8 min. For `CCCN1CCC(=O)CC1`, the LC retention time came to 6.66 min. On to `Cc1nc2c(ccc3ccccc32)c(C)c1C`, for which the LC retention time was 10.9 min. Regarding `CNCc1cccn1C`, the LC retention time amounted to 7.09 min. On to `CC1=NC(=Cc2ccccc2)C(=O)O1`, for which the LC retention time is 9.16 min. Turning to `Nc1cc(=O)[nH]c(=S)[nH]1`, the LC retention time amounted to 2.25 min. In the case of `CC(C)(C)c1ccc(C(CC(=O)O)NC(=O)c2ccccc2)cc1` (centres undefined), the LC retention time is 13.7 min. In the case of `O=C(O)CCN1CCCc2ccccc21` it was 11.3 min. As to `CC(C)=CCN1CC2(C)c3cc(O)ccc3CC1C2C` (centres undefined), the LC retention time stood at 10.3 min.

For `Nc1nc(N)nc(-c2ccc(-c3nc(N)nc(N)n3)cc2)n1`, the LC retention time stood at 7.16 min. To `CCC(O)(CC)c1ccccc1N` belongs 8.79 min; to `CCOC(=O)c1ccc2c(c1)C(=O)N(c1cccc3ccccc13)C2=O`, 16.2 min. To `COC(=O)c1nnc(-c2ccccc2)c(-c2ccccc2)n1` belongs 13.6 min; to `COc1ccc(C(=O)C=Cc2ccccc2)cc1`, 15.7 min. As for `COC(=O)C1C2CC3c4[nH]c5cc(OC)ccc5c4CCN3CC2CC(OC(=O)c2cc(OC)c(OC)c(OC)c2)C1OC` (centres undefined), the LC retention time turned out to be 12.4 min. In the case of `COC(=O)c1ccc2[nH]c3c(c2c1)CCCC3`, the LC retention time is 14.8 min. In the case of `Cc1[nH]c2ccccc2c1CCNC(=O)C1CCCCC1` it was 13.6 min; in that of `Cc1[nH]c(C)c(C=O)c1C=O`, 7.42 min; in that of `CCNCC(=O)Nc1c(C)cccc1C`, 8.77 min. To `CCCCCCN1CNC(=S)NC1` belongs 9.89 min. To `CC=CC=CC(=O)Nc1ccc(C=CC(=O)c2ccccc2)cc1` belongs 15.7 min; to `Nc1cccc(CO)c1`, 6.28 min; to `c1cncc(-c2cn[nH]c2)c1`, 6.56 min. Regarding `Cc1[nH]c2ccccc2c1Cc1nc2ccccc2[nH]1`, the LC retention time is 9.93 min. For `CC(C)Cc1ccc(C(C)C(=O)NCCCn2c3ccccc3c3ccccc32)cc1` (centres undefined), the LC retention time came out at 20.1 min.

Regarding `Cc1ccc(C)c(NC(=O)C(=O)NCC(C)O)c1` (centres undefined), the LC retention time came out at 10.5 min. For the molecule `COc1ccc(OCc2nc3ccccc3nc2C)cc1`, the LC retention time was determined as 14.1 min. For `CC1CNCC(C)N1` (centres undefined), the LC retention time was determined as 6.7 min.

Take `Cc1cc(C)c(CO)cc1C=NNC(N)=O`: the LC retention time was found to be 8.66 min. In the case of `C[n+]1cccc(C(=O)O)c1`, the LC retention time is 1.49 min. In the case of `O=C1CC(N2CCN(C(c3ccccc3)c3ccccc3)CC2)C(=O)N1c1cccc2ccccc12` (centres undefined), the LC retention time was found to be 12.4 min.

For the molecule `CCN(CC)CCOC(=O)C(c1ccccc1)C1CCCCC1` (centres undefined), the LC retention time came out at 13 min. As to `CCc1ccc(N2CC(C(=O)Nc3ccc(N(C)C)cc3)CC2=O)cc1` (centres undefined), the LC retention time was found to be 10.4 min. For `CC(=O)c1c[nH]c2ccccc12`, the LC retention time turned out to be 9.25 min. On to `Cc1ccc(-c2ccc(C(=O)O)[nH]2)cc1`, for which the LC retention time came out at 12 min. In the case of `CC(C)NC(=S)N1CCC(Cc2ccccc2)CC1`, the LC retention time was found to be 16 min.

Values taken from the RepoRT retention time repository.
